# Measured values: patent US5122448A, “Assay of anti-Epstein-Barr virus nuclear antigen antibodies with synthetic polypeptides” (Scripps Clinic and Research Foundation, priority 1990, dated 1992)
# Residues, ends and D or L forms follow the SMILES beside them.
# Columns and labels:
# anti-EBNA antibodies = assay: ELISA with polypeptide as solid phase antigen, anti-polypeptide activity of sera (OD405); assay type: binding, human; details: for Reaction of VCA+ sera with polypeptide: clinically normal VCA+ individuals, two dilutions; for Reaction of VCA- sera with polypeptide: panel of 19 VCA- sera; for Number of anti-EBNA positive sera positive against (bound to) polypeptide: 91 ACIF anti-EBNA positive sera, 1:20 dilution; for Titer of PSS patients versus normals: Progressive Systemic Schlerosis patients; for OD405 × 10^3 obtained with Patient Antibodies to peptide: serum 1:20
# Description: Briefly, microtiter wells (Costar, #3590, Cambridge, MA) were typically coated with individual polypeptides as antigens by adding 100 microliters (ul) of BBS [10 millimoler (mM) sodium borate (pH 8.3), 150 mM NaCl] containing polypeptide at a concentration of 10 micrograms per milliliter (ug/ml). Contact between the wells and antigen-containing solution was maintained for a predetermined time, typically 15 minutes, and at 20 degrees C., to form an antigen-coated solid phase. The solid and liquid phases were separated and the wells were washed three times with BBS.
# Non-specific binding sites were blocked by admixing 200 microliters of 1% bovine serum albumin (BSA) in each well to form another solid/liquid phase admixture, and maintaining that solid/liquid phase admixture for 30 minutes, at 20 degrees C. The phases were separated and excess, unbound BSA was removed by washing three times with BBS.
# The antibodies in human sera that immunoreacted with an adsored polypeptide were detected using an indicating means comprising alkaline phosphatase-conjugated goat anti-human Ig antibody (Tago, Burlington, Calif.). The antibodies in rabbit sera that immunoreacted with an adsorbed polypeptide were detected using an indicating means comprising alkaline phosphatase-conjugated goat anti-rabbit Ig antibody (Kirkegard & Perry Laboratories, Inc., Gaithersburg, MD). In either instance, 100 microliters of the indicating antibody diluted 1:300 in BBS were added per well to form a further solid/liquid phase composition. This solid-liquid phase composition was maintained for a predetermined time, one hour, for the formation of a reaction product between the human antibodies bound to the solid phase and the indicating means, and at 20 degrees C. The phases were separated, and the solid phase was washed 3 times with BBS.
# Alkaline phosphatase-conjugated antibody bound to polypeptide specific antibody was detected by spectrophotometrically measuring the enzymatic hydrolysis of p-nitrophenyl phosphate to p-nitrophenol. Briefly, 100 microliters of p-nitrophenyl phosphate [1 milligram per milliliter in 2 mM MgCl 2, (pH 9.8), 50 mM sodium carbonate] were added to each well. The enzymatic reaction was allowed to proceed 1 hour and then the optical density at 405 nm was determined in a [sequence] spectrophotometer available from Flow Laboratories, Inglewood, Calif.
# [1] = Circular dichroism spectroscopy; assay type: physicochemical; details: 1 mg/ml in phosphate buffered saline
# Description: The conformational properties of the polypeptides were investigated to elucidate any secondary structure that might be necessary for polypeptide immunoreaction with human anti-EBNA antibodies. The polypeptides were dissolved at a concentration of 1 mg/ml in phosphate-buffered saline (PBS). Spectra were taken using 1 ml samples in a Cary 61 spectropolarimeter (Cary Instruments, Applied Physics Corp., Monrovia, Calif.) interfaced and automated with a Digital Equipment Corporation 11/02 computer (Digital Equipment Corporation, Maynard, Mass.).
# [2] = tested on: rabbit anti-polypeptide antibody to polypeptide P62; assay: Competition ELISA with rabbit anti-polypeptide P62 antibody on solid phase P62; assay type: binding; details: antibody first incubated with competing polypeptide
# Description: Anti-peptide antibody binding and inhibition studies were carried out by an enzyme-linked immunosorbent assay (ELISA) as described below.
# Contact between the wells and antigen-containing solution was maintained for a predetermined time, typically 15 minutes, and at 20 degrees C., to form an antigen-coated solid phase. The solid and liquid phases were separated and the wells were washed three times with BBS.
# Rabbit and human sera (body sample aliquots) were assayed for anti-polypeptide activity by adding 100 microliters of a serum diluted 1:20 in BBS per well to form a solid/liquid phase composition. Contact between the diluted sera and the antigen-coated solid phase was maintained for a predetermined time such as 1 hour, and at 20 degrees C., for an immunoreactant to form. The solid and liquid phases were separated, and the solid phase; i.e., antigen-coated, immunoreactant-containing wells, was then washed three times with BBS.
smiles,measurement,setting,value
"CC[C@H](C)[C@H](N)C(=O)N[C@@H](CCSC)C(=O)N[C@@H](CO)C(=O)N[C@@H](CC(=O)O)C(=O)N[C@@H](CCC(=O)O)C(=O)NCC(=O)N1CCC[C@H]1C(=O)NCC(=O)N[C@H](C(=O)NCC(=O)N[C@@H](CC(N)=O)C(=O)NCC(=O)N[C@@H](CC(C)C)C(=O)NCC(=O)N[C@@H](CCC(=O)O)C(=O)O)[C@@H](C)O [Polypeptide F12, H--Ile--Met--Ser--Asp--Glu--Gly--Pro--Gly--Thr--Gly--Asn--Gly--Leu--Gly--Glu--OH] (H-IMSDEGPGTGNGLGE-OH)",Reaction of VCA+ sera with polypeptide,anti-EBNA antibodies,all of the VCA^+ individuals were positive
same,Reaction of VCA- sera with polypeptide,anti-EBNA antibodies,None of the VCA^- sera were found to react positively
same,Conformation by circular dichroism spectrum,[1],partial assumption of such conformation
"C[C@H](NC(=O)CNC(=O)[C@@H]1CCCN1)C(=O)N1CCC[C@H]1C(=O)NCC(=O)NCC(=O)N[C@@H](CO)C(=O)NCC(=O)N[C@@H](CO)C(=O)NCC(=O)N1CCC[C@H]1C(=O)O [Polypeptide F13, H--Pro--Gly--Ala--Pro--Gly--Gly--Ser--Gly--Ser--Gly--Pro--OH] (H-PGAPGGSGSGP-OH)",Reaction of VCA+ sera with polypeptide,anti-EBNA antibodies,all of the VCA^+ individuals were positive
same,Reaction of VCA- sera with polypeptide,anti-EBNA antibodies,None of the VCA^- sera were found to react positively
same,Conformation by circular dichroism spectrum,[1],random conformation
"C[C@H](NC(=O)CNC(=O)CNC(=O)CNC(=O)[C@H](C)NC(=O)CNC(=O)[C@H](C)NC(=O)CNC(=O)CNC(=O)[C@H](C)NC(=O)CNC(=O)CNC(=O)[C@H](C)NC(=O)CNC(=O)CN)C(=O)NCC(=O)O [Polypeptide F14, H--Gly--Gly--Ala--Gly--Gly--Ala--Gly--Gly--Ala--Gly--Ala--Gly--Gly--Gly--Ala--Gly--OH] (H-GGAGGAGGAGAGGGAG-OH)",Number of anti-EBNA positive sera positive against (bound to) polypeptide,anti-EBNA antibodies,91
same,Titer of PSS patients versus normals,anti-EBNA antibodies,relatively higher average titer
same,Reaction of VCA+ sera with polypeptide,anti-EBNA antibodies,all of the VCA^+ individuals were positive
same,Reaction of VCA- sera with polypeptide,anti-EBNA antibodies,None of the VCA^- sera were found to react positively
same,Conformation by circular dichroism spectrum,[1],very similar spectra
"C[C@H](NC(=O)CN)C(=O)NCC(=O)NCC(=O)N[C@@H](C)C(=O)NCC(=O)N[C@@H](C)C(=O)NCC(=O)NCC(=O)NCC(=O)N[C@@H](C)C(=O)NCC(=O)NCC(=O)N[C@@H](C)C(=O)NCC(=O)NCC(=O)O [Polypeptide F15, H--Gly--Ala--Gly--Gly--Ala--Gly--Ala--Gly--Gly--Gly--Ala--Gly--Gly--Ala--Gly--Gly--OH] (H-GAGGAGAGGGAGGAGG-OH)",Number of anti-EBNA positive sera positive against (bound to) polypeptide,anti-EBNA antibodies,91
same,Titer of PSS patients versus normals,anti-EBNA antibodies,relatively higher average titer
same,Reaction of VCA+ sera with polypeptide,anti-EBNA antibodies,all of the VCA^+ individuals were positive
same,Reaction of VCA- sera with polypeptide,anti-EBNA antibodies,None of the VCA^- sera were found to react positively
same,Conformation by circular dichroism spectrum,[1],very similar spectra
"C[C@H](NC(=O)CNC(=O)CNC(=O)[C@H](C)NC(=O)CNC(=O)[C@H](C)NC(=O)CNC(=O)CNC(=O)[C@H](C)NC(=O)CNC(=O)[C@H](C)NC(=O)CNC(=O)CNC(=O)[C@H](C)NC(=O)CNC(=O)[C@H](C)NC(=O)CNC(=O)CN)C(=O)NCC(=O)N[C@@H](C)C(=O)NCC(=O)O [Polypeptide F16, H--Gly--Gly--Ala--Gly--Ala--Gly--Gly--Ala--Gly--Ala--Gly--Gly--Ala--Gly--Ala--Gly--Gly--Ala--Gly--Ala--Gly--OH] (H-GGAGAGGAGAGGAGAGGAGAG-OH)",Number of anti-EBNA positive sera positive against (bound to) polypeptide,anti-EBNA antibodies,91
same,Titer of PSS patients versus normals,anti-EBNA antibodies,relatively higher average titer
same,Reaction of VCA+ sera with polypeptide,anti-EBNA antibodies,all of the VCA^+ individuals were positive
same,Reaction of VCA- sera with polypeptide,anti-EBNA antibodies,None of the VCA^- sera were found to react positively
"C[C@H](NC(=O)CNC(=O)CNC(=O)[C@H](C)NC(=O)CNC(=O)[C@H](C)NC(=O)CNC(=O)[C@H](C)NC(=O)CNC(=O)[C@@H](NC(=O)CNC(=O)CNC(=O)[C@H](Cc1c[nH]cn1)NC(=O)[C@@H](NC(=O)CNC(=O)[C@@H](N)CCCCN)[C@@H](C)O)[C@@H](C)O)C(=O)NCC(=O)N[C@@H](C)C(=O)NCC(=O)O [Polypeptide P27, H--Lys--Gly--Thr--His--Gly--Gly--Thr--Gly--Ala--Gly--Ala--Gly--Ala--Gly--Gly--Ala--Gly--Ala--Gly--OH] (H-KGTHGGTGAGAGAGGAGAG-OH)",Number of anti-EBNA positive sera positive against (bound to) polypeptide,anti-EBNA antibodies,91
same,Titer of PSS patients versus normals,anti-EBNA antibodies,relatively higher average titer
same,Reaction of VCA+ sera with polypeptide,anti-EBNA antibodies,all of the VCA^+ individuals were positive
same,Reaction of VCA- sera with polypeptide,anti-EBNA antibodies,None of the VCA^- sera were found to react positively
same,OD405 × 10^3 obtained with Patient Antibodies to peptide,anti-EBNA antibodies; MV post-mononucleosis,107 OD405 × 10^3
same,OD405 × 10^3 obtained with Patient Antibodies to peptide,anti-EBNA antibodies; MV pre-mononucleosis,15 OD405 × 10^3
same,OD405 × 10^3 obtained with Patient Antibodies to peptide,anti-EBNA antibodies; SB post-mononucleosis,33 OD405 × 10^3
same,OD405 × 10^3 obtained with Patient Antibodies to peptide,anti-EBNA antibodies; SB pre-mononucleosis,11 OD405 × 10^3
same,OD405 × 10^3 obtained with Patient Antibodies to peptide,anti-EBNA antibodies; VCA+ Normal 1,155 OD405 × 10^3
same,OD405 × 10^3 obtained with Patient Antibodies to peptide,anti-EBNA antibodies; VCA+ Normal 2,516 OD405 × 10^3
same,OD405 × 10^3 obtained with Patient Antibodies to peptide,"anti-EBNA antibodies; VCA- Normals (n = 27), average ± one standard deviation",67 ± 23 OD405 × 10^3
same,Inhibition of binding of anti-polypeptide P62 to polypeptide P62 in the solid phase,[2],36%
same,Conformation by circular dichroism spectrum,[1],very similar spectra
"CSCC[C@H](NC(=O)[C@@H]1CCCN1C(=O)[C@H](CCCNC(=N)N)NC(=O)[C@H](CCCCN)NC(=O)[C@H](CCC(=O)O)NC(=O)CNC(=O)[C@H](CCCNC(=N)N)NC(=O)CNC(=O)[C@H](CCCNC(=N)N)NC(=O)CNC(=O)[C@H](CCCNC(=N)N)NC(=O)CNC(=O)[C@H](CCCNC(=N)N)NC(=O)[C@H](C)NC(=O)[C@@H](N)CCCNC(=N)N)C(=O)O [Polypeptide P89, H--Arg--Ala--Arg--Gly--Arg--Gly--Arg--Gly--Arg--Gly--Glu--Lys--Arg--Pro--Met--OH] (H-RARGRGRGRGEKRPM-OH)",OD405 × 10^3 obtained with Patient Antibodies to peptide,anti-EBNA antibodies; MV post-mononucleosis,25 OD405 × 10^3
same,OD405 × 10^3 obtained with Patient Antibodies to peptide,anti-EBNA antibodies; MV pre-mononucleosis,29 OD405 × 10^3
same,OD405 × 10^3 obtained with Patient Antibodies to peptide,anti-EBNA antibodies; SB post-mononucleosis,23 OD405 × 10^3
same,OD405 × 10^3 obtained with Patient Antibodies to peptide,anti-EBNA antibodies; SB pre-mononucleosis,9 OD405 × 10^3
same,OD405 × 10^3 obtained with Patient Antibodies to peptide,anti-EBNA antibodies; VCA+ Normal 1,23 OD405 × 10^3
same,OD405 × 10^3 obtained with Patient Antibodies to peptide,anti-EBNA antibodies; VCA+ Normal 2,16 OD405 × 10^3
